Data published in patent US20220251105A1, “METHODS OF TREATING A MK2-MEDIATED DISORDER” (Celgene CAR LLC, priority 2019, published 2022).

Columns and labels:
[1] = test system: cytokines and chemokines produced by ankylosing spondylitis patient cells (TNF-α, IL-17A, MCP-1, IL-6); test: ex vivo cytokine and chemokine production by ankylosing spondylitis patient cells; assay type: cell-based, human; settings: ankylosing spondylitis patient cells in vitro
[2] = 28-day repeat-dose oral toxicity study in mice; settings: both sexes, Crl:CD1 (ICR), mouse, in vivo; mice, 28 days
Description: (§1) Additionally, toxicokinetic animals received the vehicle or compound in the same manner and dose levels as the main study groups.

Crl:CD1 (ICR) mice = test: 28-day repeat-dose oral toxicity study in mice; settings: mouse, in vivo
Description: as §1

[3] = toxicokinetics, 28-day mouse study; assay type: in vivo; settings: mice; for AUC / Cmax: Crl:CD1 (ICR), mouse, plasma, po;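 on AUCLST: AUC to the last measurable time point (AUClast)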
Description: There were no notable sex-related differences in Compound 1 exposure.
as §1

[4] = pivotal 28-day repeat-dose toxicity study in monkeys; assay type: in vivo, cynomolgus monkey; settings: both sexes, cynomolgus monkey, in vivo; monkeys, 28 days, highest dose used; read-out: NOAEL with respect to dose
[5] = test system: cynomolgus monkeys (Macaca fascicularis); test: as above; assay type: in vivo, cynomolgus monkey
[6] = physical form (amorphous/crystalline) in dose formulation vehicle; assay type: physicochemical
Description: Additionally, the vehicle used in the pivotal studies was changed from 0.5% methyl cellulose (400 cps) and 0.1% Tween 80 to distilled water.

in vivo = settings: HLA-B27/Huβ2m transgenic, rat, plasma, po
Description: In each disease model, steady-state pharmacokinetics were characterized.

[7] = 28- and 91-day toxicology studies in cynomolgus monkeys; settings: cynomolgus monkey, in vivo, oral
[8] = female, 15 mg/kg/day, Study Day 1, female, 15 mg/kg/day
[9] = female, 15 mg/kg/day, Study Day 21, female, 15 mg/kg/day
[10] = female, 100 mg/kg/day, Study Day 1, female, 100 mg/kg/day
[11] = female, 100 mg/kg/day, Study Day 21, female, 100 mg/kg/day
[12] = female, 750 mg/kg/day, Study Day 1, female, 750 mg/kg/day
[13] = female, 750 mg/kg/day, Study Day 21, female, 750 mg/kg/day
[14] = male, 15 mg/kg/day, Study Day 1, male, 15 mg/kg/day
[15] = male, 15 mg/kg/day, Study Day 21, male, 15 mg/kg/day
[16] = male, 100 mg/kg/day, Study Day 1, male, 100 mg/kg/day
[17] = male, 100 mg/kg/day, Study Day 21, male, 100 mg/kg/day
[18] = male, 750 mg/kg/day, Study Day 1, male, 750 mg/kg/day
[19] = male, 750 mg/kg/day, Study Day 21, male, 750 mg/kg/day
[20] = cynomolgus monkey, in vivo, 150 mg/kg/day

## CCOCc1cnc(Cl)nc1Oc1ccc2c(ccc3sc4c(c32)NC[C@@H](C)NC4=O)n1 [Compound 1]
[1]
  production of cytokines and chemokines incl. TNF-α, IL-17A, MCP-1, IL-6: significantly inhibited
[2]
  NOAEL at 28 days: 100 mg/kg/day
Crl:CD1 (ICR) mice; 15 mg/kg/day
  compound-related findings: no compound-related findings
Crl:CD1 (ICR) mice; 100 mg/kg/day
  microscopic finding, skeletal muscle: Minimal to mild myofiber degeneration in the skeletal muscle
Crl:CD1 (ICR) mice; 750 mg/kg/day
  adverse effect, heart: Minimal to mild myofiber degeneration in the heart
  change in mean absolute reticulocyte count: −29%
  change in mean platelet count: +96%
  leukocyte counts (non-adverse): Minimal to mild decreases in lymphocyte counts and inconsistent decreases in most other leukocyte subtypes
  microscopic finding, duodenum: Minimal to mild erosion/ulceration of the proximal duodenum
  microscopic finding, liver: Centrilobular hepatocellular hypertrophy (typically of minimal severity)
  microscopic finding, thymus: Minimal to mild thymic cortical lymphoid depletion
  organ weights (non-adverse): Increased liver and heart weights
[3]; [8]
  AUC: 5360 ng·h/mL
  Cmax: 2980 ng/mL
[3]; [9]
  AUC: 5980 ng·h/mL
  Cmax: 2970 ng/mL
[3]; [10]
  AUC: 40100 ng·h/mL
  Cmax: 14500 ng/mL
[3]; [11]
  AUC: 32800 ng·h/mL
  Cmax: 12300 ng/mL
[3]; [12]
  AUC: 198000 ng·h/mL
  Cmax: 50300 ng/mL
[3]; [13]
  AUC: 135000 ng·h/mL
  Cmax: 23200 ng/mL
[3]; [14]
  AUC: 4410 ng·h/mL
  Cmax: 2930 ng/mL
[3]; [15]
  AUC: 4460 ng·h/mL
  Cmax: 2420 ng/mL
[3]; [16]
  AUC: 29200 ng·h/mL
  Cmax: 13900 ng/mL
[3]; [17]
  AUC: 24900 ng·h/mL
  Cmax: 11700 ng/mL
[3]; [18]
  AUC: 211000 ng·h/mL
  Cmax: 29800 ng/mL
[3]; [19]
  AUC: 92800 ng·h/mL
  Cmax: 19400 ng/mL
[3]; Day 1, 15 to 750 mg/kg/day
  dose proportionality of systemic exposure (AUCLST): approximately dose-proportional manner
[3]; Day 21, 15 to 750 mg/kg/day
  dose proportionality of systemic exposure (AUCLST): less than dose-proportional manner
[4]
  NOAEL at 28 days: 375 mg/kg/day
[5]; cynomolgus monkey, in vivo, 50 mg/kg/day
  clinical observation, stool (non-adverse): discolored and/or watery stool
[5]; [20]
  clinical observation, urine (non-adverse): dose-dependent incidents of discolored urine
  microscopic finding, skeletal muscle (non-adverse): Minimal myofiber degeneration in skeletal muscle
[5]; monkeys, 50, 150, 375 mg/kg/day, 28 days
  mortality, body weight, ophthalmic examinations, electrocardiograms, clinical pathology, macroscopic observations, organ weights: no compound-related effects
[6]; Tween 80 present in the vehicle
  physical form after dose formulation preparation: changed from an amorphous to a crystalline form, beginning within the first hour
[6]; prepared in distilled water
  time remaining in the amorphous form: at least 24 hours
In vivo; 20 mg/kg
  AUC: 2820 ng·h/mL
In vivo; 100 mg/kg
  AUC: 7190 ng·h/mL
[7]
  NOAEL: 375 mg/kg/day
